The test system of this test is HT-29 cells. Put plainly: number of colonies of HT-29 cells after gamma ionizing radiation. The test is classed as cell-based. Conditions: FIG. 3. The text has this: For instance, lipid peroxidation levels of HT-29 by TBAR assay is protected by OPP against 800 and 1600 rads HT-29, as illustrated in graph of FIG. 2. […] Out of the three preparations, number of colonies of HT-29 is highest in case of de-phenolics.

For the compound `O=C(O)C1=C[C@@H](O)[C@@H](O)[C@H](O)C1` [shikimic acid], the number of colonies result was “abruptly increases”.

These data come from US20190022041A1, “OIL PALM PHENOLICS COMPOSITION FOR THE PROTECTION OF HUMANS, ORGANS, CELLS AND TISSUES AGAINST THE INJURIOUS EFFECTS OF EXPOSURE TO IONIZING RADIATION” (Malaysian Palm Oil Board, priority 2015, published 2019).
